The test system of one data set is HDLM2 cells. Put plainly: Proliferation assay, HDLM2 Hodgkin Lymphoma cells (CellTiter Glo). It counts as cell-based. To be noted: Homo sapiens. The protocol:
(§1) For the Hodgkin Lymphoma cell lines L428, L540, L1236, HDLM2 and KM-H2 (purchased from DSMZ, http://www.dsmz.de): Assay Ready Plates were prepared by adding compounds to 384-well plates (Corning #3712) using Echo Liquid Handler. On day 0, 1200 cells/well of L428, L540, or KMH2 cells in 60 μl of growth media (RPMI1640+10% FBS+1% L-Glu+1% P/S) were dispensed into the Assay Ready Plates, 10 μM as final top concentration, with 1:3 dilution, and 10 doses total. The same volume was also dispensed into 1 empty plate for Day 0 control plate. 30 μl/well of CellTiter Glo reagent (Promega #7573) was added into Day 0 plate, incubate at room temperature for 20 min in dark, Measure luminescence on plate reader Tecan M200 using 100 ms integration time, Oms attenuation and settle times. The assay plates were incubated for 7 days in incubator with 37° C., 90% humidity, 5% CO2. Luminescence was measured as Day 0 control plate. IC50 was calculated using GraphPad Prism 8 with Nonlinear regression (curve fit) analysis.
Alternatively, for HDLM2 (purchased from DSMZ): Cells were grown as […] cells in growth media (phenol red free RPMI+10% FCS+2 mM glutamine). Cells were seeded into 96-well clear-bottomed black tissue-culture treated plates at 1000 cells/well in 90 μl growth media and placed in an incubator at 37° C., 5% CO2. Compound was obtained in solution from the liquid bank at a concentration of 10 mM in DMSO then half-log serial dilutions performed in DMSO to make ×1000 fold stock solutions. Concentrations were then diluted 1 in 10 in DMSO followed by 1 in 10 in growth media to give an addition plate at x^10 final concentration in 10% DMSO. 10 μl compound was then added to 90 μl cell (1 in 10 dilution) to give a concentration range of 0.1 nM to 10 μM in 1% DMSO. CellTiter Glo readings were taken at the point of dosing and at 6 days. […] Read luminescence on Envision F (ultrasensitive luminescence 96-well protocol with 384 well aperture). IC50 was calculated using GraphPad Prism 8 with Nonlinear regression (curve fit) analysis.

In another data set the test system is L540 cells. Kind of data set: Proliferation assay, L540 Hodgkin Lymphoma cells (CellTiter Glo). It counts as cell-based. Particulars: Homo sapiens. The method, then:
as §1

In the next data set the test system is L1236 cells. Kind of data set: Proliferation assay, L1236 Hodgkin Lymphoma cells (CellTiter Glo). Type of data set: cell-based. The protocol:
as §1

A further data set has as its system L428 cells. Kind of data set: Proliferation assay, L428 Hodgkin Lymphoma cells (CellTiter Glo). To be noted: Homo sapiens. It counts as cell-based. The protocol: as §1
Data set [1] deals with MTAP knock out (KO) HCT116 cells. Kind of data set: Proliferation assay, HCT116 MTAP knock out cells (Alamar Blue). It counts as cell-based. To be noted: Homo sapiens, HCT-116; HCT116, MTAP status KO, MTAP mRNA level low; average values from two or more experiments. The protocol: (§2) For the HCT116 isogenic cell line (the parental model purchased from ATCC, the MTAP KO clone generated in-house using CRISPR technology): Cells were harvested to a density of 400 cells per well (McCoys 5A+10% FCS+1% Glutamax), 40 μl/well seeded into 384-well plates (Greiner, Kremsmunster, Austria; 781090) using a Multidrop Combi. For Day 0 plates immediately add 4 μl Alamar Blue reagent (Thermo; DAL1100) using a multidrop combi and incubate for 3 h at 37° C., 5% CO2. Day 0 cell plates were measured using Envision plate reader with fluorescence excitation wavelength of 540-570 nm (peak excitation is 570 nm), fluorescence emission at 580-610 nm (peak emission is 585 nm). Test compounds were added using an Echo 555 and placed in incubator at 37° C., 5% CO2 and incubated for 4 more days. […], add 4 μl Alamar Blue reagent using a Multidrop Combi and incubate for 3 h at 37° C., 5% CO2. Day 4 cell plates were measured using EnVision plate reader with fluorescence excitation wavelength of 540-570 nm, fluorescence emission at 580-610 nm. The rate of proliferation (IC50 values) was determined using Genedata screener software by assessing the total cell number from the Envision plate reader for Day 0 and Day 4 plates.

Data set [2] relates to wild type (wt) HCT116 cells. Kind of data set: Proliferation assay, HCT116 wild type cells (Alamar Blue). Type of data set: cell-based. To be noted: Homo sapiens, HCT-116; HCT116, MTAP status wt, MTAP mRNA level high; average values from two or more experiments. The method, then:
as §2

Data set [3] deals with MTAP silenced L540 HL xenograft. Put plainly: Tumor growth inhibition in L540 HL xenograft model. Type of data set: in vivo, Mouse (Mus Musculus). Particulars: for TGI (%): 21 days of dosing, TGI measured day 21 (end of treatment), NOD/SCID mice. The protocol: (§3) This study was performed to evaluate tumor growth inhibition and pharmacodynamic changes following treatment with the MTA synergistic PRMT5 inhibitor Compound C in the MTAP silenced L540 HL xenograft model. Three doses of Compound C (Dose Level 1, Dose Level 2 and Dose Level 3) were tested. Pharmacodynamic changes were assessed by western blot for a decrease in SDMA (marker of target engagement) following treatment with Compound C.
Xenografts were established by subcutaneous (SC) injection of 5×10^e6 cells suspended in 0.1 mL of PBS into the right front flank of 6-to 8-week-old animals. Tumors were allowed to reach 100-200 mm^3 before randomization. Tumors were measured by calliper and the volumes of tumors were calculated using the following formula: Volume (mm3)=(Tumor Length)×(Tumor width)×(Tumor width)/2 Tumor length (the longest tumor dimension); Tumor width (the longest tumor dimension perpendicular to length).
Animals were randomized into groups based on the size of the tumor. Randomization was performed based on “Matched distribution” method (StudyDirector™ software, version 3.1.399.19). The date of randomization is denoted as Day 0. There were no animal substitutions.
(§4) Control animals were dosed with vehicle (5% v/v DMSO/20% v/v Kolliphor HS15/75% v/v purified water (pH 3.0-3.2)) PO, and vehicle and Compound C treated animals were dosed according to Table 6. Dosing was initiated 1 day upon selection and randomization. On day 21 of dosing, all animals from each received the last dose in the morning. Mice were necropsied 6 h later and flash frozen tumors were collected for PD analysis.
(§5) • Tumors were measured twice weekly by caliper, and the volumes of tumors were calculated using the formula: Volume (mm^3)=(Tumor Length)×(Tumor width)×(Tumor width)/2 • Relative tumor volume (RTV) was calculated using the formula: RTV for day X=(Tumour volume on day X)/(Tumour volume on day 0) • The anti-cancer effect of Compound C was expressed as percent of tumor growth inhibition (TGI) calculated on last day of the study using the formula: • Percentage TGI on day X for treatment group=(((Geomean RTV Vehicle day X)−(Geomean RTV Treatment group day X))/((Geomean RTV Vehicle on day X)−1)×100 • Animals were weighted daily for the dosing phase and twice weekly for all other phases. Percentage of body weight change was calculated using the formula: Percentage body weight change on day X=(((Body weight day X)−(Body weight day of select)×100))
Tumor volumes were plotted as geometric means with SEM. Percentage of body weight change was plotted as means with SEM. Significant p-values for TGI relative to vehicle treated controls (relative tumor volumes) at the last day of treatment, were obtained from a Mann-Whitney one-tailed test, and calculated by GraphPad Prism 8.4.3

Data set [4] concerns SDMA (marker of target engagement). Kind of data set: Pharmacodynamic analysis: SDMA western blot in L540 xenograft tumors. Type of data set: in vivo, Mouse (Mus Musculus). To be noted: tumors collected 6 h after last dose on day 21, western blot normalized to vinculin. The protocol:
as §3, §4
To determine levels of protein of interest in tumor samples, snap frozen tumor fragments at the end of the PD study were used and protein extracted by adding 600-1000 μl lysis buffer for small and large tumors, respectively. […] Lysates were transferred to a deepwell plate, and protein in the supernatant measured using BCA normalisation method (Thermofisher, #23225). […] The membranes were washed three times for 15 minutes each in 20 ml of TBST, and signal was detected using chemiluminescent SuperSignal West Dura extended duration substrate (Thermofisher, #34075) and quantified using Syngene software. The 30 kDa molecular weight band of PRMT5's substrate, SDMA, was quantified using Syngene software. The 110 kDa molecular weight band of vinculin was also quantified. […]
Primary analysis was carried out using Excel, where raw data was firstly normalised to vinculin, secondly to the geomean of vehicle control and then multiplied by 100. […] Significant p-values, if any, obtained from the ANOVA test, were quantified using GraphPad Prism 8.4.3.

Data set [5] is described as follows: Tolerability / body weight in L540 HL xenograft model. Type of data set: in vivo, Mouse (Mus Musculus). Particulars: all doses tested, PO, 21 days. The method, then:
as §4, §5
Tumor volumes were plotted as geometric means with SEM. Percentage of body weight change was plotted as means with SEM. […]

[6] abbreviates: HDLM-2, HDLM2, MTAP status wt, MTAP mRNA level low, average values from two or more experiments, read-out: IC50, proliferation.
Setting [7] is: L-540, L540, MTAP status wt, MTAP mRNA level low, average values from two or more experiments, read-out: IC50, proliferation.
[8] abbreviates: L-1236, L1236, MTAP status wt, MTAP mRNA level low, average values from two or more experiments, read-out: IC50, proliferation.
[9] abbreviates: L-428, L428, MTAP status wt, MTAP mRNA level high, average values from two or more experiments, read-out: IC50, proliferation.

Read-outs that look alike come from different tables or passages of the source.

As for `Nc1nc2cc(CN3C(=O)c4cc(F)ccc4[C@]34CCN(Cc3ccc(F)cc3)C4=O)[nH]c2cc1F` [Compound A, (S)-2-((5-Amino-6-fluoro-1H-pyrrolo[3,2-b]pyridin-2-yl)methyl)-5-fluoro-1′-(4-fluorobenzyl)spiro[isoindoline-1,3′-pyrrolidine]-2′,3-dione], the IC50 in the data set on HDLM2 cells (setting [6]) is 39 nM; in the data set on L540 cells (setting [7]), 247 nM; in the data set with L1236 cells (setting [8]), 67 nM; in the data set with L428 cells (setting [9]), 2520 nM; in data set [1], 158 nM; in [2] it was > 20 µM.
On to `CC#CCN1CC[C@@]2(C1=O)c1ccc(F)cc1C(=O)N2Cc1cc2nc(N)c(F)cc2[nH]1` [Compound C, (S)-2-((5-Amino-6-fluoro-1H-pyrrolo[3,2-b]pyridin-2-yl)methyl)-1′-(but-2-yn-1-yl)-5-fluorospiro[isoindoline-1,3′-pyrrolidine]-2′,3-dione], for which the IC50 in the data set with HDLM2 cells (HDLM-2, read-out: IC50, proliferation) was 827 nM; with L540 cells (L-540, read-out: IC50, proliferation), 252 nM; with L1236 cells (L-1236, read-out: IC50, proliferation), 77 nM; with L428 cells (L-428, read-out: IC50, proliferation), 4640 nM; in [1] it was 170 nM; in [2], 8.54 µM. In addition, the “TGI (%)” value in data set [3] (Dose Level 1, PO) is given as 22%; in data set [3] (Dose Level 2, PO) it was 52%; in [3] (Dose Level 3, PO), 93%. Moreover, the “Inhibition of tumour growth in vivo (in words)” value in data set [3] (Dose Levels 1-3, PO, L540 HL xenograft) is given as “dose-dependent efficacy”. For the same compound, the “Percentage Inhibition of SDMA” value turned out to be 83.9% in data set [4] (Dose Level 1, PO); 97.6% in [4] (Dose Level 2, PO); 99.1% in data set [4] (Dose Level 3, PO). For the same compound, the “Body weight loss during the treatment period compared to vehicle-treated group” value in data set [5] is on record as “no significant body weight loss”. Besides, the Tolerability result in data set [5] is given as “well tolerated”.
In the case of `CC(=O)N1CCC(Nc2cc(C(=O)NC[C@H](O)CN3CCc4ccccc4C3)ncn2)CC1` [Compound B, reference compound], the IC50 amounted to 93 nM in the data set on HDLM2 cells (setting [6]); 157 nM in the data set with L540 cells (setting [7]); 14 nM with L1236 cells (setting [8]); 583 nM in the data set on L428 cells (setting [9]); 74 nM in data set [1]; 0.075 µM in [2].

Values taken from US20260048040A1, “MTA-COOPERATIVE PRMT5 INHIBITORS FOR USE IN THE TREATMENT OF CANCER” (ASTRAZENECA AB, priority 2022, published 2026).
